# Entries after “also recorded” stand apart in the source; their conditions may differ.
# T1: NQO2 (Homo sapiens, UniProt P16083)
# T1 sequence (P16083 1-231): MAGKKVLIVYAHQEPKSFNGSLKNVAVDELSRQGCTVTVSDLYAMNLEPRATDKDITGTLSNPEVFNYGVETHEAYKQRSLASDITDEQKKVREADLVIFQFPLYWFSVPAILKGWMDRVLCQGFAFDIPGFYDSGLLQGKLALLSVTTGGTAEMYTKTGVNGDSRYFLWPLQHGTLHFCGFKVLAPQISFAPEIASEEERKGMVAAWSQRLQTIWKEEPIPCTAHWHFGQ
# T2: Rat DT-diaphorase (Rattus norvegicus, UniProt P05982)
# T2 sequence (P05982 2-274 limits assumed): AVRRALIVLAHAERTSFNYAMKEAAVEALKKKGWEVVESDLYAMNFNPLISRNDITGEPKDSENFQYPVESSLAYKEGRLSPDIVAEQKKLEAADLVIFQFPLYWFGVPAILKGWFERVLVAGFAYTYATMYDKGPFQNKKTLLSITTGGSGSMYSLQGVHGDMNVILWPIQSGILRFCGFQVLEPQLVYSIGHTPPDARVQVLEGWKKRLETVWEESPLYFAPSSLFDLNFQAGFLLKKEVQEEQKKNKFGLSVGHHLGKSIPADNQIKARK
# How the values were obtained:
# [1] = system: wild-type V79 cells; experiment: Uptake of NQO2 co-substrates into V79 cells (fluorimetry); assay type: in vitro ADME, Chinese hamster; conditions: for uptake / internalisation into cells: 1 mM co-substrate, 37° C.
# Procedure: The uptake of various NQO2 co-substrates into V79 cells was determined by fluorimetry. V79 cells were seeded into T25 tissue culture flasks and allowed to grow to confluence (^−2×10^7 cells). The growth medium was removed and replaced with 10 mls of fresh medium containing 1 mM of co-substrate and incubated at 37° C. At various the medium was removed and the cell monolayer washed ×5 with 50 mL of ice cold PBS. The cells were removed by trypsinisation and pelleted by centrifugation. The cell pellet was resuspended in alkaline lysis buffer (KOH 0.5M; 36% W/v CsCl; in 50% aqueous ethanol) disrupted by agitation and the cell debris removed by centrifugation at 10,000 g. The concentration of co-substrate was determined by fluorimetry (excitation 360 nm, emission 450 nm, slits 5nm) by diluting 100μl of supernatant in 2.9ml of 100 mM sodium bicarbonate buffer pH 10. The fluorimeter was calibrated against the appropriate standard. All measurements were done in triplicate.
# [2] = molecular target: T1, NQO2; experiment: Co-substrate activity with NQO2 for reduction of CB 1954 (HPLC); assay type: biochemical; set-up: restriction site were added to the 5′ and 3′-ends of the full-length NQO2 cDNA; made in house; host or cells: E. coli (expression vector pKK233-2, plasmid pKK-hNQO2); conditions: for Km: of NQO2 for the co-substrate, CB1954 as electron acceptor (100 μM); for kcat: of NQO2 with the co-substrate, CB1954 as electron acceptor; for ability to act as co-substrate for NQO2: reduction of CB 1954 by NQO2; for RELATIVE RATE OF REDUCTION: CB 1954 reduction by NQO2, co-substrate initial 500 μM, CB 1954 initial 100 μM
# Procedure: The effect of various co-substrates on CB 1954 was determined as above but NADH. NADPH or NMNH was substituted for the NRH and CB 1954 was used at a fixed concentration of 100 μM. The enzyme concentration was 5 μg/ml. The reduction of CB 1954 was monitored by measuring both the decrease in its corresponding peak area on the HPLC trace and the increase in the area of the peak corresponding to the reduction product 5-(aziridin-1-yl)-4-hydroxylamino-2-nitrobenzamide. The relative rates of reduction were determined at 10% reduction of CB1954 from a graph plotting CB 1954 reduction against time. The time axis was normalised to the equivalent of 10 μg/ml of NQO2.
# The activity of various potential co-substrates was determined by HPLC analysis in the presence of CB1954 and NQO2. To determine the kinetic parameters NQO2 (1 μg/ml) was incubated with NRH (5000 μM) and CB1954 at different concentrations (0.1 to 2 mM) in sodium phosphate buffer (10MM, pH 7) at 37° C. At various times, aliquots (10 μl) were injected onto a Partisphere SCX (250×4.5 mm) HPLC column (Whatman Ltd) and eluted isocratically (1.5 ml/min) with 50 mM aqueous sodium phosphate containing 1% methanol. The eluate was continuously monitored for absorption at 320 nm. […] The reduction of CB1954 was monitored by quantifying the increase in the area of the peak corresponding to the reduction product 5-(aziridin-1-yl)-4-hydroxylamino-2-nitrobenzamide. All the assays were initiated by addition of the enzyme and performed in duplicate. The kinetic parameters were calculated by plotting the initial rate of reduction at each concentration of CB1954 against that concentration and fitting the data to the Michaelis-Menton equation using a computer programme (Fig P). Values were confirmed by transforming the data and fitting it to various linear forms of the equation by regression analysis.
# The effect of various co-substrates on CB1954 reduction was determined as above but the co-substrate was substituted for the NRH and C1954 was used at a fixed concentration of 100 μM. The enzyme concentration was 1 or 5 μg/ml. The reduction of CB1954 was monitored by measuring both the decrease in its corresponding peak area on the HPLC trace and the increase in the area of the peak corresponding to the reduction product 5-(aziridin-1-yl)-4-hydroxylamino-2-nitrobenzamide. The relative rates of reduction were determined at 10% reduction of CB1954 from a graph plotting CB1954 reduction against time. The time axis was normalised to the equivalent of 10 μg/ml of NQO2. The kinetic parameters of NQO2 for the various co-substrates was determined as for CB1954 except that the initial concentration of CB1954 was constant at 100 μm whilst that of the co-substrate was varied from 0 to 2 mM. The enzyme concentration was 0.5 μg/ml.
# [3] = molecular target: T2, Rat DT-diaphorase; experiment: Use of co-substrates by rat DT diaphorase for reduction of CB1954; assay type: biochemical
# [4] = system: human T98G gliobastoma cells; experiment: Cytotoxicity of CB 1954 on T98G glioblastoma cells with NQO2 co-substrates; conditions: 144 hr in presence of CB 1954
# Procedure: Cells in exponential phase of growth were trypsinised, seeded in 96 well plates at a density of 5×10^4 cells per well (100 μl) and permitted to recover for 24 hours. Then 50 μl of medium was removed and replaced with 50 μl of fresh medium containing 200 μM NRH to give a final concentration of 100 μM. Serial dilutions of CB 1954 (8 of 3.66×) were performed in situ giving final concentrations of 1000–0.46 μM. Cells were then incubated with drug for 72 hours at 37° C. The plates were fixed and stained with sulforhodamine-B; the absorption at 590 nm read and results were expressed as percentage of control growth. The IC50 values were evaluated by interpolation.
# The cells were treated as for V79 cells but were treated for 144 hr in presence of CB 1954.
# [5] = molecular target: E. coli nitroreductase (Escherichia coli, UniProt P38489); experiment: Use of co-substrates by E. coli nitroreductase for reduction of CB1954; assay type: biochemical
# [6] = Effect on the body weight of normal mice (in vivo toxicity); conditions: intravenous (tail vein), 8 day period
# Procedure: Mice (6 groups of 3) were injected intravenously (tail vein) with either compound 1 or 2 at the doses shown and the weight of the mice was monitored over an 8 day period. Control mice received vehicle (phosphate buffered saline) only.
# [7] = molecular target: T1, NQO2; experiment: Inhibition of NQO2 by flavones; assay type: biochemical; conditions: competitive with respect to NRH; read-out: K1 (competitive inhibitor with respect to NRH)
# [8] = substrate: NC(=O)c1cc(N2CC2)c([N+](=O)[O-])cc1[N+](=O)[O-]; experiment: Kinetic parameters of NQO2 with respect to CB 1954 (HPLC); assay type: biochemical, human; conditions: other: with respect to CB 1954; NRH as co-substrate; pH 7.0; 37.0 °C
# Procedure: Recombinant human NQO2 was prepared in E. coli. A NcoI and a HindIII restriction site were added to the 5′ and 3′-ends of the full-length NQO2 cDNA, respectively, using a PCR method with primers and nucleotide sequences derived from the 5′ and 3′-ends of the cDNA. The PCR product was resolved over a 1% agarose gel and then extracted using the QiAquick Gel Extraction Kit (Qiagen Inc). The gel-purified PCR product was cloned into PCRII vector from the TA cloning kit (Invitrogen Co) and the correct sequence of the PCR product was checked by dideoxy sequencing. The resulting construct was religated into the E. coli expression vector, pKK233-2 (Pharmacia) through the engineered NcoI and HindIII restriction sites. The expression plasmid was designated pKK-hNQO2. […] The purified NQO2 preparation was analysed by SDS-PAGE electrophoresis. The activity of NQO2 in the presence of CB 1954, and various cofactors was determined by HPLC. […] The eluate was continuously monitored for absorption at 320 nm. […] The reduction of CB 1954 was monitored by quantifying the increase in the area of the peak corresponding to the reduction product 5-(aziridin-1-yl)-4-hydroxylamino-2-nitrobenzamide. […] The kinetic parameters were calculated by plotting the initial rate of reduction at each concentration of CB 1954 against that concentration and fitting the data to the Michales-Menton equation using a computer programme (FigP). […]
# Sequence of E. coli nitroreductase (P38489 whole entry): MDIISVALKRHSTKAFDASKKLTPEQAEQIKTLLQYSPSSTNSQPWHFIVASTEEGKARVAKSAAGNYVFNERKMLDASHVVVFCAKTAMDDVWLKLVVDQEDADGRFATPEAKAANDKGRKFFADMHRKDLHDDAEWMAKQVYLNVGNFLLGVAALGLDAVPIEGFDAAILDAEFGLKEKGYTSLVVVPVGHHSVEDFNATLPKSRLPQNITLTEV
molecule,measurement,setting,value
"NC(=O)C1=CN(CCCS(=O)(=O)O)C=CC1 [Compound 1, 1-(3-sulfonatopropyl)-dihydronicotinamide]",uptake / internalisation into cells,[1],excluded from the cells; also recorded: do not expect it to enter cells and this is what is observed
same,uptake / internalisation into cells,[1]; listed as compound 1,excluded from cells; also recorded: not able to enter the cells
same,Km,[2],1080 ± 135 µM
same,kcat,[2],25.5 s⁻¹
same,ability of rat DT diaphorase to use as co-substrate,[3],able to use
same,increase of the cytotoxicity of CB 1954 by added co-substrate,[4],did not potentiate; also recorded: no potentialtion is observed
same,ability of E. coli nitroreductase to use as co-substrate,[5],not able to use either
same,intrinsic toxicity as judged by body weight loss,[6],no evidence of intrinsic toxicity
"NC(=O)CN1C=CCC(C(N)=O)=C1 [Compound 2, 1-(carboxamidomethyl)-dihydronicotinamide]",internalisation relative to NRH,[1],about 10 % of NRH
same,uptake / internalisation into cells,[1],poorly internalised
same,Km,[2],198 ± 19 µM
same,kcat,[2],12.5 s⁻¹
same,ability of rat DT diaphorase to use as co-substrate,[3],able to use
same,ability of E. coli nitroreductase to use as co-substrate,[5],not able to use either
same,intrinsic toxicity as judged by body weight loss,[6],no evidence of intrinsic toxicity
"NC(=O)C1=CN(Cc2ccccc2)C=CC1 [Compound 8, 1-benzyl-dihydronicotinamide]",ability to act as co-substrate for NQO2,[2],not cosubstrates
same,ability to act as co-substrate for NQO2,[2]; listed as compound 8,not co-substrates
NC(=O)C1=CN(CCc2ccccc2)C=CC1 [Compound 11],ability to act as co-substrate for NQO2,[2],not cosubstrates; also recorded: poor co-substrate
NC(=O)C1=CN([C@@H]2O[C@H](COP(=O)(O)OP(=O)(O)OC[C@H]3O[C@@H](n4cnc5c(N)ncnc54)[C@H](O)[C@@H]3O)[C@@H](O)[C@H]2O)C=CC1 [NADH],RELATIVE RATE OF REDUCTION,[2],1.0
same,ability to act as co-substrate for NQO2,[2],not readily catalysed; also recorded: not cosubstrates; also recorded: poor co-substrates
same,ability of rat DT diaphorase to use as co-substrate,[3],can use NADH as a co-substrate
same,ability of E. coli nitroreductase to use as co-substrate,[5],can use NADH as a co-substrate
NC(=O)C1=CN([C@@H]2O[C@H](COP(=O)(O)OP(=O)(O)OC[C@H]3O[C@@H](n4cnc5c(N)ncnc54)[C@H](OP(=O)(O)O)[C@@H]3O)[C@@H](O)[C@H]2O)C=CC1 [NADPH],RELATIVE RATE OF REDUCTION,[2],1.24
same,ability to act as co-substrate for NQO2,[2],not readily catalysed; also recorded: not cosubstrates; also recorded: poor co-substrates
NC(=O)C1=CN([C@@H]2O[C@H](COP(=O)(O)O)[C@@H](O)[C@H]2O)C=CC1 [NMNH],RELATIVE RATE OF REDUCTION,[2],5.6
"O=c1c(O)c(-c2ccc(O)c(O)c2)oc2cc(O)cc(O)c12 [Quercetin, 3,5,7,3′,4′-pentahydroxyflavone]",Ki,[7],27 nM
O=C(O)C1=CN(C2O[C@H](COP(=O)(O)O)[C@@H](O)[C@H]2O)C=CC1 (some centres unmarked) [nicotinic acid mononucleotide (reduced)],ability to act as co-substrate for NQO2,[2],not co-substrates
"Recombinant human NQO2 (Homo sapiens) (protein, restriction site were added to the 5′ and 3′-ends of the full-length NQO2 cDNA; made in house; host or cells: E. coli (expression vector pKK233-2, plasmid pKK-hNQO2)) MAGKKVLIVYAHQEPKSFNGSLKNVAVDELSRQGCTVTVSDLYAMNLEPRATDKDITGTLSNPEVFNYGVETHEAYKQRSLASDITDEQKKVREADLVIFQFPLYWFSVPAILKGWMDRVLCQGFAFDIPGFYDSGLLQGKLALLSVTTGGTAEMYTKTGVNGDSRYFLWPLQHGTLHFCGFKVLAPQISFAPEIASEEERKGMVAAWSQRLQTIWKEEPIPCTAHWHFGQ",Km,[8],263 ± 13 µM
same,kcat,[8],6.01 s⁻¹

# — patent US7138122B2, “Therapeutic systems” (Enzacta R & D Limited, priority 1997, dated 2006)
